For 87 compounds, melting point results are on record in a melting point compilation (Tetko et al.; mined from patent text by program, amines drawn as free bases though some values may be those of a salt).

A word on the melting point: it is the temperature, or range, at which the solid turns liquid.

With `CCCCn1c(=O)c2c(ncn2S(=O)(=O)c2cccs2)n(CCCC)c1=O`, the melting point was 145 to 146 °C.

`CS(=O)(=O)c1ccc(-c2cnn(-c3cccc(Cl)c3)c(=O)c2SCc2ccccc2)cc1` gave a melting point of 142 to 145 °C.

In turn, `Cc1ccc(-c2ccc(S(C)(=O)=O)c(F)c2)n1-c1ccc(-c2ccoc2)cc1` registered a melting point of 147 to 150 °C.

Compound `C#Cc1cccc(Oc2nc(Cl)nc(Oc3cccc(C#C)c3)n2)c1` showed a melting point of 121 to 125 °C.

In turn, `C=Cc1ccc(Nc2nc(Cl)nc(Cl)n2)cc1` returned a melting point of 152 to 154 °C.

`Cc1ccc2oc(=O)c(C(=O)Oc3cc(Cl)ccc3Cl)cc2c1` showed a melting point of 175 to 179 °C.

`COc1ccc(C(=O)Nc2c(C)c(C)c3c(c2C)C(c2ccc(C)cc2)C(C)(C)O3)cc1` (configuration not stated) had a melting point of 161 to 163 °C.

As for `Cc1cn(C2OC(CO)C(O)C2F)c(=O)[nH]c1=O` (configuration not stated), the melting point is 185 to 186 °C.

`CCOC(=O)c1cn(C)c2c(=O)c3ccccc3oc2c1=O`: the melting point lay in the range of 251 to 254 °C.

Regarding `OCCN1CCC(Nc2nc3cncnc3n2Cc2ccc(F)cc2)CC1`, the melting point is 159 °C.

`O=C(O)C1CCc2[nH]c3ccccc3c2C1` (configuration not stated) had a melting point of 198 to 199 °C.

As for `CNc1cccc2c1OC1(CC1)C2=O`, the melting point came to 98.2 °C.

The compound `c1cc(CN2CCCCC2)ccc1CN1CCCCC1` returned a melting point of 86 to 88 °C.

Take `ClCc1cc2ccccc2nc1I`: the melting point is 138 to 140 °C.

Turning to `N#CCc1ccccc1CCc1ccc(Br)cc1`, the melting point lay within 59 to 60.5 °C.

`COc1cccc(C(=O)O)c1C` came in with a melting point of 145 to 147 °C.

For the compound `CC1(C)CS(=O)(=O)CC(C)(C)N1CC#N`, the melting point worked out at 188 °C.

`C=CCC(O)(C(=O)N[C@H]1CN2CCC1CC2)c1cccs1` (some centres not stated): the melting point fell in the range of 54.4 to 58.3 °C.

The compound `COC1CC=C(c2ccc(C(C)=O)cc2)CC1` (configuration not stated) returned a melting point of 40 to 42 °C.

`CCCCCC(=O)c1c(C)n(C(=O)OC)c(=O)n1C(=O)OC` displayed a melting point of 84 to 86 °C.

As to `CCOC(=O)C(=CNc1coc2cc(OC)ccc2c1=O)C(=O)OCC`, the melting point fell in the range of 139 to 141 °C.

`Cc1cc(C#N)cc(C(=O)c2c(C(C)C)c(=O)[nH]c(=O)n2CC(C)C)c1` showed a melting point of 200 to 201 °C.

For the compound `CC1CCc2ccc(C#N)c3c(=O)c(C(=O)O)cn1c23` (configuration not stated), the melting point is more than 300 °C.

In the case of `Nc1cccc(-c2ccc(CCN3CCN(C(=O)Cc4ccc(Cl)cc4)CC3)cc2)n1`, the melting point was 205 °C.

Compound `Cc1cccc(NC(=O)NCC(=O)N(CC(=O)OC(C)(C)C)c2ccccc2OC(F)(F)F)c1` returned a melting point of 163 °C.

`CN(CCCc1nc2ccccc2[nH]1)C(=O)OCc1ccccc1` had a melting point of 83 to 86 °C.

`COC(=O)c1cnc(Cl)c(OC)c1` returned a melting point of 83 to 85 °C.

As for `Cc1csc2nc(N3CCC(C(=O)O)CC3)nc(NCc3ccc(F)cc3)c12`, the melting point was determined as 279 °C.

`Cc1cc(N2CCN(Cc3ccc(F)cc3)C2=O)sc1C(=O)NCc1cccnc1` registered a melting point of 119 to 120 °C.

`CC(C)Oc1ccc([N+](=O)[O-])cc1O` registered a melting point of 139 °C.

Compound `CC(=O)Nc1ccc(C[C@H](NC(=O)N(CCO)CCc2ccccc2)C(=O)NCCN(C)C)cc1` registered a melting point of 132 to 137 °C.

`COc1ccccc1-c1ccc(C(=O)N2Cc3cccn3Cc3ccccc32)cc1` came in with a melting point of 250 to 253 °C.

For the compound `CCOC(=O)C1=C(C)NC(COC(N)=O)=C(C(=O)OCC)C1c1ccccc1[N+](=O)[O-]` (configuration not stated), the melting point is 128 to 132 °C.

In the case of `C#CC(C)OC(=O)c1cccc2ccccc12` (configuration not stated), the melting point lay in the range of 66 to 68 °C.

`COC(=O)Nc1ccc(NC(=O)CN(C)C)c([N+](=O)[O-])c1` showed a melting point of 186 to 189 °C.

Take `CC(=O)N(O)CCc1ccc2c(c1)C(=O)c1ccccc1CO2`: the melting point lay within 113 to 115 °C.

Turning to `COC(=N)c1sc2ccccc2c1O`, the melting point is 201 °C.

`COc1ccc(/C=C/C(=O)N2CC(CCl)c3c2cc([N+](=O)[O-])c2cc(S(=O)(=O)NCCO)ccc32)cc1` (configuration not stated) displayed a melting point of 250 to 251 °C.

In the case of `O=[N+]([O-])c1ccc(CO)c(Sc2ccccc2O)c1`, the melting point was 131 to 133 °C.

`O=C(O)C(=O)CC(=O)c1cn(CCCCc2ccccc2)c2ccccc2c1=O` had a melting point of 136 to 138 °C.

`COc1ccc(S(=O)(=O)C2(C(=O)NO)CCN(C)CC2)cc1` returned a melting point of 89 °C.

Compound `CC(C)c1ccc([N+](=O)[O-])c(C(C)C)c1NC(=O)CN1CCN(CCSc2nc3cccc(C(F)(F)F)c3o2)CC1` yielded a melting point of 115 to 117 °C.

`CC(=O)c1cc(NS(C)(=O)=O)c(Sc2ccc(F)cc2F)cc1[N+](=O)[O-]` had a melting point of 169 to 170 °C.

The compound `O=S(=O)(c1ccc(C(F)(F)F)cc1)N1c2cc(F)c(F)cc2-c2[nH]ncc2[C@H]1C1CC1` displayed a melting point of 137 to 138 °C.

`CC(C)(C)OC(=O)N1CCCC(c2ccc3c(c2)C2(CO3)C(=O)N(Cc3ccc(C(F)(F)F)o3)c3ccccc32)C1` (configuration not stated) had a melting point of 59 to 61 °C.

As for `Cc1noc(NS(=O)(=O)c2ccccc2-c2ccc(-c3ncco3)cc2CN(C)C(=O)c2ccccc2Cl)c1C`, the melting point is 125 to 135 °C.

`CCOC(=O)Cn1c(-c2ccc([N+](=O)[O-])cc2)nc2cccnc21` yielded a melting point of 192 to 194 °C.

Compound `O=C(Nc1ccc(N(CCCl)CCCl)cc1)Nc1cc(CO)cc(Nc2c3ccccc3nc3ccccc23)c1` had a melting point of 173 to 175 °C.

In turn, `N#Cc1ccc(Cn2cncn2)c(-c2ccc(O)c(Cl)c2)c1` returned a melting point of 243 to 245 °C.

In turn, `COc1cc(/C=C2\C(=O)NC(=O)\C2=C\c2ccccc2)ccc1OC1CCCC1` gave a melting point of 203 to 204 °C.

The compound `CCOc1cc(C(CS(C)(=O)=O)N2Cc3cccc(NC(=O)C4CC4)c3C2=O)ccc1OC(F)F` (configuration not stated) yielded a melting point of 115 to 117 °C.

For `COc1ccccc1NCN1CCOC1=O`, the melting point is 95.5 to 98 °C.

`COc1cc(C)nc2c(OCc3c(Cl)ccc(N)c3Cl)cccc12` returned a melting point of more than 250 °C.

Regarding `COc1ccc2c(c1)S(=O)(=O)N=CN2CCO`, the melting point is 160 to 162 °C.

Compound `CC1(C)CC2(CC(C)(C)N1)NC(=O)N(CC(O)COC(=O)CCCCC(=O)OCC(O)CN1C(=O)NC3(CC(C)(C)NC(C)(C)C3)C1=O)C2=O` (configuration not stated) came in with a melting point of 132 to 134 °C.

As to `CN1C(C(=O)Nc2cccccc2=O)=C(O)c2ccccc2S1(=O)=O`, the melting point is 259 to 261 °C.

On to `Cc1noc(NS(=O)(=O)c2ccccc2-c2ccc(-c3ncco3)cc2CN(C(=O)C(C)C)C2CC2)c1C`, for which the melting point lay in the range of 110 to 120 °C.

Compound `O=C1OCCC1N1C(=O)c2cccc3cccc(c23)C1=O` (configuration not stated) displayed a melting point of 310 to 312 °C.

`COc1ccc(-c2nc(C)n(CCC(C)(C)NCC(O)c3ccc(O)c(CO)c3)n2)cc1` (configuration not stated) displayed a melting point of 110 to 116 °C.

Compound `COC(=O)C(O)C(Sc1cc(Oc2cccc(C)c2)ccc1N)c1ccc(OC)cc1` (configuration not stated) displayed a melting point of 112 to 115 °C.

As for `COc1ccc([PH](=O)c2ccc(OC)cc2)cc1`, the melting point is 126 °C.

Take `COC(=O)C(=NOCc1ccccc1)C(C)=O`: the melting point lay in the range of 35 to 36 °C.

With `CN1C(=O)CC[C@]2(C)c3ccc(-c4cccc([N+](=O)[O-])c4)cc3CC[C@@H]12`, the melting point was in the range of 181 to 183 °C.

Regarding `CCOC(=O)C(Cc1cc2c([N+](=O)[O-])cccc2[nH]1)[N+](=O)[O-]` (configuration not stated), the melting point fell in the range of 110 to 112 °C.

`COc1ccc2c(c1)CCC1C2CCC2(C)C(O)C(N)CC12` (configuration not stated) registered a melting point of 159 to 161 °C.

Take `COc1cc(COc2nn(-c3ccccc3)cc2/C=C/S(C)(=O)=O)ccc1OCc1nc(-c2ccco2)oc1C`: the melting point is 152 to 153 °C.

Consider `CCOc1nc2cccc(C(=O)OC)c2n1Cc1ccc(-c2ccccc2C(=O)OC)cc1`, for which the melting point was 112 to 113 °C.

On to `CCn1nc(-c2cccc(Cl)c2)c2ncccc2c1=O`, for which the melting point fell in the range of 117 to 118 °C.

On to `Cn1nc(-c2ccnc(N[C@H]3CC[C@H](O)CC3)n2)c2ccccc21`, for which the melting point lay within 180 to 183 °C.

`CCOC(=O)/C=C/c1c(CC)cnc2c(NC(=O)c3c(Cl)cccc3Cl)cccc12` gave a melting point of 115 to 118 °C.

`CCOC(=O)CNC(=O)C(C)(C)c1ccc(C2=NC(C)(C)Cc3cc(OC)c4c(c32)CC(C)(C)O4)cc1` yielded a melting point of 133 to 138 °C.

Compound `CC(C)(CO)CNC(=O)c1n[nH]cc1NC(=O)c1ccccn1` displayed a melting point of 217 to 218 °C.

`CCOC(=O)C1=C(C)NC(c2cscn2)=NC1c1cccc(O)c1` (configuration not stated) had a melting point of 180 to 183 °C.

In turn, `CCCCc1ccc(CCCCC(NC(C)=O)(C(=O)OCC)C(=O)OCC)cc1` showed a melting point of 60 to 61 °C.

In the case of `CC1COc2c(F)c(Cl)cc3c(=O)c(C(=O)O)cn1c23` (configuration not stated), the melting point is more than 300 °C.

The compound `Cc1cc(CNS(=O)(=O)c2ccc(Br)s2)cc(C)n1` yielded a melting point of 138 °C.

Regarding `CC(C)(C)CC(C)(C)c1ccc(Oc2cc3nc(C(C)(C)C)oc3cc2[N+](=O)[O-])cc1`, the melting point was in the range of 77 to 78 °C.

With `CCOC(=O)c1cccc(-c2nc(-c3cc(C)oc3C)cs2)c1`, the melting point lay within 100 to 101 °C.

Consider `O=C(O)CCCn1ccc(=O)c(O)c1Cc1ccccc1`, for which the melting point lay in the range of 170 to 172 °C.

In turn, `CC(C)(C)OC(=O)N1CCN2C[C@H](COc3ccc(F)cc3)CC[C@H]2C1` returned a melting point of 90 to 92 °C.

`COCc1cccc2oc(C(=O)Nc3ccc(-c4ccc(S(=O)(=O)NC(C(=O)O)C(C)C)cc4)cc3)c(C)c12` (configuration not stated) displayed a melting point of 227 to 230 °C.

Consider `COc1cccc(CN2CC=C(/C=C/c3ccccc3)CC2)c1`, for which the melting point is 75 to 77 °C.

`CCOc1nn(-c2ccc(C(F)(F)F)cn2)cc1CCCOc1ccc(CCC(=O)O)cc1OCc1ccccc1`: the melting point is 115 to 116 °C.

On to `N#CCc1ccc(OCc2ccccc2)c2c1OCCO2`, for which the melting point was 95 °C.

Turning to `COc1ccc(-c2cccc(O)c2)cc1`, the melting point lay in the range of 76.5 to 78 °C.

As for `CC(=O)Nc1ccc(C(C)(C)C)cc1[N+](=O)[O-]`, the melting point was 109 to 110 °C.

On to `CCC1c2cccn2-c2ccc(Br)cc2N1S(=O)(=O)c1ccc(O)c(C)c1` (configuration not stated), for which the melting point lay within 191 to 193 °C.
